Results from US8772277B2, “Nitrogen-containing heterocyclic compound” (Takeda Pharmaceutical Company Limited, priority 2011, dated 2014).
Where a name gives a salt, the structure may show the parent alone.

Columns and labels:
[1] = target: T1, fusion protein containing GAL4-DNA-binding domain and ERR full-length (Homo sapiens, UniProt P11474); assay: Reporter assay system using 293T cells (GAL4-ERR luciferase, inverse agonist activity); format: cell-based; conditions: compound final concentration 3 μM, no compound = 0%, 10 μM XCT-790 = 100%; for inhibition at 3 µM: HEK-293T, read-out: inhibition rate (%) at 3 μM
T1 construct: expressed in transfected cells; host or cells: 293T cells
T1 sequence (P11474 1-423): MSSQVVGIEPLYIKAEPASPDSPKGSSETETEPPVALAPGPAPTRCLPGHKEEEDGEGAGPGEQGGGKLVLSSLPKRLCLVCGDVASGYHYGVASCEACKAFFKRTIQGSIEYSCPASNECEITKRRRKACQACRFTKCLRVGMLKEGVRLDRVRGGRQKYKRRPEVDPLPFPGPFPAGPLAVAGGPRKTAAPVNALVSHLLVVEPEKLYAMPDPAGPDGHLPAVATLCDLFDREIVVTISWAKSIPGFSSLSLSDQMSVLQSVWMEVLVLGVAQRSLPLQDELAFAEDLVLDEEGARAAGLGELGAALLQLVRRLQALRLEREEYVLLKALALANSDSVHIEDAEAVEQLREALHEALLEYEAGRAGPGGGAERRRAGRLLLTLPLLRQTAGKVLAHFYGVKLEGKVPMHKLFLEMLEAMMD
Description: Experimental Example 2 Compound Evaluation in Reporter Assay System Using 293T Cells
293T cells derived from human kidney were seeded in a 150 cm^2 flask by 6,000,000 cells, and cultured in a medium (DMEM medium containing 10% inactivated Fetal Bovine Serum sterile filtered (FBS), […] Gentamicin, 10 mM HEPES buffer (pH 7.4)) at 37° C. in the presence of 5% CO2 for 1 day.
Then, vector DNA having a gene encoding a fusion protein, containing GAL4-DNA-binding domain and ERR full-length and a vector DNA wherein luciferase gene is fused at the downstream of GAL4-binding-sequence were cotransfected by a lipofection method, and the cells were cultured at 37° C. in the presence of 5% CO2 for 1 day. The cells were recovered, sown in a 384 well plate by 15,000 cells, and cultured at 37° C. in the presence of 5% CO2 for 3 hrs. Furthermore, 50 μM N-[5-(trifluoromethyl)-1,3,4-thiadiazol-2-yl]-2-cyano-3-[3-methoxy-4-[2,4-di(trifluoromethyl)benzyloxy]phenyl]propenamide (XCT-790) (final concentration 10 μM) or 15 μM compound (final concentration 3 μM) was added, and the cells were cultured at 37° C. in the presence of 5% CO2 for 1 day. The luciferase activity was measured by using multiplate reader Envision (Perkin Elmer Inc.). The inverse agonist activity of the compound was calculated in percentage with the luciferase activity inhibited by no addition of compound as 0%, and with addition of final concentration 10 μM of XCT-790 as 100%.

[2] = target: T2, GST-ERR-α ligand-binding domain (Homo sapiens, UniProt P11474); assay: HTRF assay system using ERR-α ligand-binding domain (inverse agonist activity, biotinylated SRC-1 (676-700) peptide); format: biochemical; conditions: compound final concentration 30 μM, 665/620 ratio, no compound = 0%, 10 μM XCT-790 = 100%; for inhibition at 30 µM: read-out: inhibition rate (%) at 30 μM
T2 sequence (P11474 193-421 limits assumed): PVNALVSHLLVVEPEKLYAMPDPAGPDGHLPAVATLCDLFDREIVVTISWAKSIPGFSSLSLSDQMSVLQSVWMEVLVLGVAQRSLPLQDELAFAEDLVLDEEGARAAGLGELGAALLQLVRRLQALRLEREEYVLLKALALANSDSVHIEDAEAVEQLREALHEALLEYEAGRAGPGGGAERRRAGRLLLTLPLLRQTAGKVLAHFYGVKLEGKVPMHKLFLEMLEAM
Description: Experimental Example 1 Compound Evaluation in HTRF Assay System Using ERR-α Ligand-Binding Domain
An assay buffer (25 mM HEPES, 100 mM NaCl, 1 mM DTT, 0.1% BSA) containing 5 nM GST-ERR-α ligand-binding domain (final concentration 1.25 nM) was added to a 384 well plate, then 40 μM N-[5-(trifluoromethyl)-1,3,4-thiadiazol-2-yl]-2-cyano-3-[3-methoxy-4-[2,4-di(trifluoromethyl)benzyloxy]phenyl]propenamide (XCT-790) (final concentration 10 μM), or 120 μM compound (final concentration 30 μM) was added. Furthermore, an assay buffer containing XL665 conjugated Streptavidin, Eu^3+ criptate conjugated GST antibody and 200 nM biotinylated SRC-1 (676-700) (final concentration 100 nM) was added, and the mixture was reacted at room temperature for 2 hr. Using Multiplate reader Envision (Perkin Elmer Inc.), after excitation at 320 nm, fluorescence values at 620 nm and 665 nm were measured. The inverse agonist activity of the compound was calculated in percentage with the 665/620 ratio value inhibited by no addition of compound as 0%, and with addition of final concentration 10 μM of XCT-790 as 100%.

SMILES	inhibition at 3 µM [1] [%]	inhibition rate (%) at 3 μM [1] [%]	inhibition rate (%) at 30 μM [2] [%]	inhibition at 30 µM [2] [%]
CNC1=NC(=O)S/C1=C\C1CCN(Cc2ccc(C(F)(F)F)cc2C(F)(F)F)CC1 [Example 3, (5Z)-5-({1-[2,4-bis(trifluoromethyl)benzyl]piperidin-4-yl}methylidene)-4-(methylamino)-1,3-thiazol-2(5H)-one]	88			
O=C1N=C(NCCOCCO)/C(=C/C2CCN(Cc3ccc(C(F)(F)F)cc3C(F)(F)F)CC2)S1 [Example 8, (5Z)-5-({1-[2,4-bis(trifluoromethyl)benzyl]piperidin-4-yl}methylidene)-4-{[2-(2-hydroxyethoxy)ethyl]amino}-1,3-thiazol-2(5H)-one]		87	97	
CCN(CC)CCNC1=NC(=O)S/C1=C\C1CCN(Cc2ccc(C(F)(F)F)cc2C(F)(F)F)CC1 [Example 9, (5Z)-5-({1-[2,4-bis(trifluoromethyl)benzyl]piperidin-4-yl}methylidene)-4-{[2-(diethylamino)ethyl]amino}-1,3-thiazol-2(5H)-one dihydrochloride]	88			107
CNC1=NC(=O)S/C1=C\[C@@H]1C[C@H]2CC[C@@H](C1)N2Cc1ccc(C(F)(F)F)cc1C(F)(F)F [Example 15, (5Z)-5-({(3-exo)-8-[2,4-bis(trifluoromethyl)benzyl]-8-azabicyclo[3.2.1]oct-3-yl}methylidene)-4-(methylamino)-1,3-thiazol-2(5H)-one]	88			102
C#CCNC1=NC(=O)S/C1=C\C1CCN(Cc2ccc(C(F)(F)F)cc2C(F)(F)F)CC1 [Example 16, (5Z)-5-({1-[2,4-bis(trifluoromethyl)benzyl]piperidin-4-yl}methylidene)-4-(prop-2-yn-1-ylamino)-1,3-thiazol-2(5H)-one hydrochloride]	89			112
O=C1N=C(NC2COC2)/C(=C/C2CCN(Cc3ccc(C(F)(F)F)cc3C(F)(F)F)CC2)S1 [Example 20, (5Z)-5-({1-[2,4-bis(trifluoromethyl)benzyl]piperidin-4-yl}methylidene)-4-(oxetan-3-ylamino)-1,3-thiazol-2(5H)-one]	95			105
C#CCNC1=NC(=O)S/C1=C\C1CCN(Cc2ccc(Cl)cc2C(F)(F)F)CC1 [Example 24, (5Z)-5-({1-[4-chloro-2-(trifluoromethyl)benzyl]piperidin-4-yl}methylidene)-4-(prop-2-yn-1-ylamino)-1,3-thiazol-2(5H)-one fumarate]	92			105
CC(C)(O)CNC1=NC(=O)S/C1=C\C1CCN(Cc2ccc(C(F)(F)F)cc2C(F)(F)F)CC1 [Example 31, (5Z)-5-({1-[2,4-bis(trifluoromethyl)benzyl]piperidin-4-yl}methylidene)-4-[(2-hydroxy-2-methylpropyl)amino]-1,3-thiazol-2(5H)-one]		87	101	

Now from value to compound:

inhibition at 3 µM [1] [%]	inhibition rate (%) at 3 μM [1] [%]	inhibition rate (%) at 30 μM [2] [%]	inhibition at 30 µM [2] [%]	SMILES
			109	CNC1=NC(=O)S/C1=C\C1CCN(Cc2ccc(C(F)(F)F)cc2C(F)(F)F)CC1 [Example 37, (5Z)-5-({1-[2,4-bis(trifluoromethyl)benzyl]piperidin-4-yl}methylidene)-4-(methylamino)-1,3-thiazol-2(5H)-one fumarate]
85			106	COCCOCCNC1=NC(=O)S/C1=C\C1CCN(Cc2ccc(C(F)(F)F)cc2C(F)(F)F)CC1 [Example 39, (5Z)-5-({1-[2,4-bis(trifluoromethyl)benzyl]piperidin-4-yl}methylidene)-4-{[2-(2-methoxyethoxy)ethyl]amino}-1,3-thiazol-2(5H)-one]
62			73	C#CCNC1=NC(=O)S/C1=C\C1CCN(Cc2ccc(C#N)cc2C(F)(F)F)CC1 [Example 40, 4-[(4-{(Z)-[2-oxo-4-(prop-2-yn-1-ylamino)-1,3-thiazol-5(2H)-ylidene]methyl}piperidin-1-yl)methyl]-3-(trifluoromethyl)benzonitrile]
87			106	O=C1N=C(NC2CCOC2)/C(=C/C2CCN(Cc3ccc(C(F)(F)F)cc3C(F)(F)F)CC2)S1 (stereo not drawn) [Example 43, (5Z)-5-({1-[2,4-bis(trifluoromethyl)benzyl]piperidin-4-yl}methylidene)-4-(tetrahydrofuran-3-ylamino)-1,3-thiazol-2(5H)-one 0.5 fumarate]
90			108	CCN(CC)CCOCCNC1=NC(=O)S/C1=C\C1CCN(Cc2ccc(C(F)(F)F)cc2C(F)(F)F)CC1 [Example 47, (5Z)-5-({1-[2,4-bis(trifluoromethyl)benzyl]piperidin-4-yl}methylidene)-4-({2-[2-(diethylamino)ethoxy]ethyl}amino)-1,3-thiazol-2(5H)-one ditosylate]
91			106	O=C1N=C(NCC(O)CO)/C(=C/C2CCN(Cc3ccc(C(F)(F)F)cc3C(F)(F)F)CC2)S1 (stereo not drawn) [Example 56, (5Z)-5-({1-[2,4-bis(trifluoromethyl)benzyl]piperidin-4-yl}methylidene)-4-[(2,3-dihydroxypropyl)amino]-1,3-thiazol-2(5H)-one]
91			110	CN(CCO)CCNC1=NC(=O)S/C1=C\C1CCN(Cc2ccc(C(F)(F)F)cc2C(F)(F)F)CC1 [Example 58, (5Z)-5-({1-[2,4-bis(trifluoromethyl)benzyl]piperidin-4-yl}methylidene)-4-({2-[(2-hydroxyethyl)(methyl)amino]ethyl}amino)-1,3-thiazol-2(5H)-one ½fumarate]
67			49	C#CCNC1=NC(=O)S/C1=C\C1CCN(Cc2ccc(C(F)(F)F)cc2Cl)CC1 [Example 59, (5Z)-5-({1-[2-chloro-4-(trifluoromethyl)benzyl]piperidin-4-yl}methylidene)-4-(prop-2-yn-1-ylamino)-1,3-thiazol-2(5H)-one fumarate]
90			95	O=C1N=C(NCC2CC2)/C(=C/C2CCN(Cc3ccc(C(F)(F)F)cc3C(F)(F)F)CC2)S1 [Example 61, (5Z)-5-({1-[2,4-bis(trifluoromethyl)benzyl]piperidin-4-yl}methylidene)-4-[(cyclopropylmethyl)amino]-1,3-thiazol-2(5H)-one fumarate]
88				CC(C)(O)C#CCNC1=NC(=O)S/C1=C\C1CCN(Cc2ccc(C(F)(F)F)cc2C(F)(F)F)CC1 [Example 87, (5Z)-5-({1-[2,4-bis(trifluoromethyl)benzyl]piperidin-4-yl}methylidene)-4-[(4-hydroxy-4-methylpent-2-yn-1-yl)amino]-1,3-thiazol-2(5H)-one]
